The source of these data is US20100028447A1, “Intranasal, Buccal, And Sublingual Administration Of Metanicotine Analogs” (TARGACEPT, INC., priority 2007, published 2010).

Series [1] can be described thus: Permeation across cultured human respiratory epithelium (EpiAir tissue), apical-to-basolateral Papp. The following applies: human, pH 7.4, Papp. The text has this: (§1) An in vitro model of MatTek EpiAir® tissue was used for the permeability assessment of the test articles and control compounds. The EpiAir® culture consists of cells that have been cultured to form a pseudo-stratified, highly differentiated model closely resembling the epithelial tissue of the human respiratory tract. The histological cross-sections of the cultured tissue reveal a pseudo-stratified mucociliary phenotype.
(§2) EpiAir® tissues plated in 12 well plates were pre-equilibrated for the assay by culturing them for 24 hours at 37° C. with 5% CO2 in a humidified incubator. On the day of the assay, the cultures were washed two times with Dulbeccos' Phosphate Buffered Saline (DPBS buffer) at pH 7.4, and then dosed with donor and receiver buffer applied to the apical and basolateral surfaces of the culture, respectively. The receiver buffer consisted of DPBS, at pH 7.4. The donor solution consisted of DPBS buffer containing the appropriate compounds as specified in Table 1. All treatments were performed in triplicate. The receiver buffer was sampled at 15, 30, 60, and 120 minutes, and the donor buffer was sampled at 120 minutes.
(§3) The Lucifer Yellow concentration in the receiver samples was measured using a FluoStar fluorescence plate reader (BMG Laboratories, Durham, N.C.).
(§4) The apparent permeability coefficient, Papp, was calculated as follows: […]
(§5) where: dCr/dt is the slope of the cumulative concentration in the receiver compartment versus time; Vr is the volume of the receiver compartment; A is the surface area of epithelium available for permeation; and Co is the dosing solution concentration.

In series [2] the test system is cultured human respiratory epithelium. As to the kind of experiment: in vitro.
Excerpt: as §1, §2, §3, §4, §5

Series [3] can be described thus: In situ brain perfusion, single time-point method. The protocol:
Animals used in this study were Sprague-Dawley rats (approximate weight 250-300 grams), obtained from Hilltop Lab Animals, Scottdale, Pa. Upon arrival, the rats were assigned randomly to treatment groups and acclimated for at least 24 hours. The animals were housed two per cage and identified by cage labels. A single room was used for this study. The animals were supplied with water and a commercial rodent diet ad libitum. On the day of the experiment, each rat was anesthetized intraperitoneally with Ketamine HCl/Xylazine HCl solution prior to being implanted with a cannula into the left carotid artery. Branch arteries were […], and the cardiac supply was cut off prior to brain perfusion.
Perfusion was performed using the single time-point method. […] Following 30 seconds of perfusion, the pump was stopped, and the brain was removed from the skull immediately. The brain was cut longitudinally in […]. Each left cerebral hemisphere was placed into a chilled tube, frozen on dry ice, and stored frozen at −60° C. to −80° C. until analyzed. […] Test articles were perfused at concentrations of 50 μM. The outline of the experimental treatments and the target and measured concentrations of the test articles and control compounds in the perfusate are presented in Table 3.
The left brain hemisphere from each rat was thawed and weighed. Methanol (20% aqueous) was added to each left brain hemisphere at approximately 4 mL per 1 g of brain tissue, and the mixture was homogenized using sonication with a VirSonic Ultrasonic Cell Disruptor 100 (VirTis). The test articles and two reference compounds were analyzed in the resulting homogenate by using LC/MS/MS.
The unidirectional brain transfer constants Kin (mL/g/min) were determined for the test articles and the high permeability reference, antipyrine, using the following equation for the single-point perfusion assay: […]
where: Cbr/Cpf is the apparent brain distribution volume (mL/g of brain tissue); Cbr is the concentration of drug in the brain tissue (pmol of drug per g of brain tissue); Cpf is the drug concentration in the perfusion fluid (pmol/mL of perfusate); and t is the net perfusion time (minutes).
Graphic representation and statistical analyses of the data were performed using GraphPad Prism software.

The mark [4] stands for this setting: Treatment 3: MAO substrate Phenylethylamine assayed with controls, Average ± STD.
[5] abbreviates: Treatment 3: MAO substrate Phenylethylamine assayed with controls, Rep 1.
The mark [6] stands for this setting: Treatment 3: MAO substrate Phenylethylamine assayed with controls, Rep 2.
Setting [7] is: Treatment 3: MAO substrate Phenylethylamine assayed with controls, Rep 3.
Where [8] appears, read: Treatment 4: Phenylethylamine assayed with controls + MAO inhibitor Pargyline, Average ± STD.
Setting [9] is: Treatment 4: Phenylethylamine assayed with controls + MAO inhibitor Pargyline, Rep 1.
[10] abbreviates: Treatment 4: Phenylethylamine assayed with controls + MAO inhibitor Pargyline, Rep 2.
Setting [11] is: Treatment 4: Phenylethylamine assayed with controls + MAO inhibitor Pargyline, Rep 3.
[12] abbreviates: Table 4 Treatment 1: Compound B perfused with references, Average ± STD.
The mark [13] stands for this setting: Table 4 Treatment 1: Compound B perfused with references, Rat 1.
The mark [14] stands for this setting: Table 4 Treatment 1: Compound B perfused with references, Rat 2.
The mark [15] stands for this setting: Table 4 Treatment 1: Compound B perfused with references, Rat 3.
Where [16] appears, read: Table 4 Treatment 2: Compound B perfused with references + MAO inhibitor Pargyline, Average ± STD.
[17] abbreviates: Table 4 Treatment 2: Compound B perfused with references + MAO inhibitor Pargyline, Rat 1.
Where [18] appears, read: Table 4 Treatment 2: Compound B perfused with references + MAO inhibitor Pargyline, Rat 2.
[19] abbreviates: Table 4 Treatment 2: Compound B perfused with references + MAO inhibitor Pargyline, Rat 3.
The mark [20] stands for this setting: Table 5 Treatment 1: Compound A perfused with references, Average ± STD.
[21] abbreviates: Table 5 Treatment 1: Compound A perfused with references, Rat 1.
Setting [22] is: Table 5 Treatment 1: Compound A perfused with references, Rat 2.
[23] abbreviates: Table 5 Treatment 1: Compound A perfused with references, Rat 3.
Where [24] appears, read: Table 5 Treatment 2: Compound A perfused with references + CYP2D6 inhibitor Quinidine, Average ± STD.
[25] abbreviates: Table 5 Treatment 2: Compound A perfused with references + CYP2D6 inhibitor Quinidine, Rat 1.
Setting [26] is: Table 5 Treatment 2: Compound A perfused with references + CYP2D6 inhibitor Quinidine, Rat 2.
Setting [27] is: Table 5 Treatment 2: Compound A perfused with references + CYP2D6 inhibitor Quinidine, Rat 3.

By Papp is commonly meant a coefficient for how fast a substance crosses the barrier. With `NCCc1ccccc1` [Phenylethylamine], the Papp at 120 min in series [1] (setting [4]) stood at 18.94 ± 0.1 ×10⁻⁶ cm/s; in series [1] (setting [5]), 18.8 ×10⁻⁶ cm/s; in series [1] (setting [6]) it was 18.9 ×10⁻⁶ cm/s; in series [1] (setting [7]), 19 ×10⁻⁶ cm/s; in series [1] (setting [8]) it was 35.2 ± 0.98 ×10⁻⁶ cm/s; in series [1] (setting [9]), 34.5 ×10⁻⁶ cm/s. Moreover, the Papp at 120 min in series [1] (setting [10]) came out at 36.3 ×10⁻⁶ cm/s; in series [1] (setting [11]) it was 34.7 ×10⁻⁶ cm/s. Moreover, in series [2], the “Permeation (Papp) in the presence of the MAO inhibitor Pargyline compared to alone” value is reported as “significant increased”.
Regarding `Cc1cc(=O)n(-c2ccccc2)n1C` [Antipyrine, reference compound], the “Brain Concentration (corrected for drug retained in vascular volume)” value (“Brain Concentration” for short) in series [3] (setting [12]) came to 1083.1 ± 141.4 pmol/g; in series [3] (setting [13]), 1123.1 pmol/g; in series [3] (setting [14]) it was 1200.2 pmol/g; in series [3] (setting [15]) it was 926.0 pmol/g; in series [3] (setting [16]) it was 888.5 ± 47.9 pmol/g; in series [3] (setting [17]) it was 833.1 pmol/g. The “Brain Concentration” value came to 914.3 pmol/g in series [3] (setting [18]); 918.0 pmol/g in series [3] (setting [19]); 1157.1 ± 239.3 pmol/g in series [3] (setting [20]); 1426.6 pmol/g in series [3] (setting [21]); 1074.9 pmol/g in series [3] (setting [22]); 969.7 pmol/g in series [3] (setting [23]). In addition, the “Brain Concentration” value in series [3] (setting [24]) was determined as 1124.7 ± 135.5 pmol/g; in series [3] (setting [25]), 977.7 pmol/g; in series [3] (setting [26]), 1244.5 pmol/g; in series [3] (setting [27]) it was 1151.8 pmol/g. Further, the Kin in series [3] (setting [12]) came to 0.342 ± 0.045 mL/g/min; in series [3] (setting [13]) it was 0.355 mL/g/min; in series [3] (setting [14]) it was 0.379 mL/g/min; in series [3] (setting [15]), 0.292 mL/g/min; in series [3] (setting [16]), 0.300 ± 0.016 mL/g/min; in series [3] (setting [17]), 0.282 mL/g/min. For the same molecule, the Kin amounted to 0.309 mL/g/min in series [3] (setting [18]); 0.310 mL/g/min in series [3] (setting [19]); 0.376 ± 0.078 mL/g/min in series [3] (setting [20]); 0.463 mL/g/min in series [3] (setting [21]); 0.349 mL/g/min in series [3] (setting [22]); 0.315 mL/g/min in series [3] (setting [23]). In addition, the Kin in series [3] (setting [24]) came out at 0.386 ± 0.047 mL/g/min; in series [3] (setting [25]), 0.336 mL/g/min; in series [3] (setting [26]) it was 0.427 mL/g/min; in series [3] (setting [27]), 0.395 mL/g/min.
Lucifer Yellow: the Papp in series [2] (Treatment 1: Compound B assayed with controls, Average ± STD) was 14.40 ± 0.37 ×10^−6 cm/s; in series [2] (Treatment 1: Compound B assayed with controls, Rep 1) it was 1.481e-05 cm/s; in series [2] (Treatment 1: Compound B assayed with controls, Rep 2), 1.411e-05 cm/s; in series [2] (Treatment 1: Compound B assayed with controls, Rep 3), 1.426e-05 cm/s; in series [2] (Treatment 2: Compound B assayed with controls + MAO inhibitor Pargyline, Average ± STD) it was 15.10 ± 0.11 ×10^−6 cm/s; in series [2] (Treatment 2: Compound B assayed with controls + MAO inhibitor Pargyline, Rep 1), 1.509e-05 cm/s. For the same molecule, the Papp in series [2] (Treatment 2: Compound B assayed with controls + MAO inhibitor Pargyline, Rep 2) was 1.5e-05 cm/s; in series [2] (Treatment 2: Compound B assayed with controls + MAO inhibitor Pargyline, Rep 3), 1.521e-05 cm/s; in series [2] (setting [4]), 14.82 ± 0.88 ×10^−6 cm/s; in series [2] (setting [5]) it was 1.561e-05 cm/s; in series [2] (setting [6]) it was 1.388e-05 cm/s; in series [2] (setting [7]) it was 1.499e-05 cm/s. In addition, the Papp in series [2] (setting [8]) was 13.76 ± 0.46 ×10^−6 cm/s; in series [2] (setting [9]) it was 1.327e-05 cm/s; in series [2] (setting [10]) it was 1.382e-05 cm/s; in series [2] (setting [11]), 1.42e-05 cm/s; in series [2] (Treatment 5: Compound A assayed with controls, Average ± STD), 14.56 ± 1.33 ×10^−6 cm/s; in series [2] (Treatment 5: Compound A assayed with controls, Rep 1) it was 1.491e-05 cm/s. In addition, the Papp is 1.309e-05 cm/s in series [2] (Treatment 5: Compound A assayed with controls, Rep 2); 1.568e-05 cm/s in series [2] (Treatment 5: Compound A assayed with controls, Rep 3); 13.88 ± 0.56 ×10^−6 cm/s in series [2] (Treatment 7: CYP2D6 substrate Bufuralol assayed with controls, Average ± STD); 1.355e-05 cm/s in series [2] (Treatment 7: CYP2D6 substrate Bufuralol assayed with controls, Rep 1); 1.357e-05 cm/s in series [2] (Treatment 7: CYP2D6 substrate Bufuralol assayed with controls, Rep 2); 1.452e-05 cm/s in series [2] (Treatment 7: CYP2D6 substrate Bufuralol assayed with controls, Rep 3).
